Measurements taken from patent publication US20230348376A1 (TEIJIN PHARMA LIMITED, priority 2020, published 2023).
Read-outs that look alike come from different tables or passages of the source.

Key:
human VDR = target: T1, human VDR (Homo sapiens, UniProt P11473); experiment: Evaluation of VDR transcription activity in human osteoblasts (HOS cells), luciferase reporter; settings: Activity (EC50, VDR transcription activity), HOS cells transfected with human VDR, human RXRα and DR3 luciferase reporter; 21 hours
T1 sequence (P11473 1-427): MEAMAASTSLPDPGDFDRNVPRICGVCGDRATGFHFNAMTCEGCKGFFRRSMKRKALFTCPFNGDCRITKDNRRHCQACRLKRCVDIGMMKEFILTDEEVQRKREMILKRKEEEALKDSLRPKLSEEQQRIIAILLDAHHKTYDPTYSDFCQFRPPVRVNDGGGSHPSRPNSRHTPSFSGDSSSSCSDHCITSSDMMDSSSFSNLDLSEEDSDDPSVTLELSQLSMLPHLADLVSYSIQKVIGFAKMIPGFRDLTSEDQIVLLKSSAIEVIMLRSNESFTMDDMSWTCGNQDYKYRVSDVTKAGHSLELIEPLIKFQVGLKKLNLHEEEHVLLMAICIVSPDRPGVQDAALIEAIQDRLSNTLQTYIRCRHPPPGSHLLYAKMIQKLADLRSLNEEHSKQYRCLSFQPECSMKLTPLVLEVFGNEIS
T1 sequence (P19793 1-462 partner): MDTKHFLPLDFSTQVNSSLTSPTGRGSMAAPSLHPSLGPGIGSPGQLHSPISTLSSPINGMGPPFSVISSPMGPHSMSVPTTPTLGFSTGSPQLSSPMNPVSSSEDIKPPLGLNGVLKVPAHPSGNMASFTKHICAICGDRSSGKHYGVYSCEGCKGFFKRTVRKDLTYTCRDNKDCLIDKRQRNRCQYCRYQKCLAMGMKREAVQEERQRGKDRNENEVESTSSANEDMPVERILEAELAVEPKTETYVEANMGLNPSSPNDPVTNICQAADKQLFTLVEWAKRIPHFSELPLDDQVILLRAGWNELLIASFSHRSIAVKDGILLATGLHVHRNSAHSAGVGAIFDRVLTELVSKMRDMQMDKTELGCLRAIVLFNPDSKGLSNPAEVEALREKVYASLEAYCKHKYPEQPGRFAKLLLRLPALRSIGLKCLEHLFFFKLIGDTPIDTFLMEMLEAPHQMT

[1] = system: rat oligodendrocyte progenitor cells; experiment: Promotive activity of rat oligodendrocyte progenitor cell differentiation-2 (immunostaining of MBP); assay type: cell-based; settings: vitamin D derivative 2 μM, T3 30 nM, 4 days
Procedure, shortened: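 Vitamin D derivatives scored as symbols for promoting differentiation, read out by MBP immunostaining. OPCs taken from supernatant after about 22 h shaking (37 °C, 200 rpm) in separation medium.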

[2] = Evaluation of brain penetration in mice (blood and brain concentration at brain Cmax); assay type: in vivo, mouse; settings: 1 mg/kg single oral dose, C57BL/6J mice; for Concentration in blood (mean ± SD) at brain Cmax / Concentration in brain (mean ± SD) at brain Cmax: n=3; for Kp: male, mouse, brain/plasma, read-out: Concentration in brain/in blood ratio at brain Cmax
Method: The administration solution was administered orally to C57BL/6J mice (8 weeks old, male, n=3) at a single dose (1 mg/kg). Mice were euthanized at 6 points of 0.25, 0.5, 1, 2, 4, and 8 hours after administration, and plasma and brain sampling were performed. After preparing a homogenate from the collected brain using Tissue Lyser II (QIAGEN #85300), acetonitrile was added to the homogenate and the homogenate was centrifuged (12000 rpm, 5 minutes) to extract the administered test compound contained in the brain. Similarly, the plasma was subjected to addition of acetonitrile and centrifugal separation to extract the administered test compound contained in the plasma. Each extracted sample was subjected to measurement of the concentration of administered test compound using LC/MS/MS (SHIMADZU UFLC/MS/MS (8050)).
Test 2 [0.2 mg/kg Administration Study] […] The administration solution was administered orally to C57BL/6J mice (8 weeks old, male, n=3) at a single dose (0.2 mg/kg). Mice were euthanized at 6 points of 0.25, 0.5, 1, 2, 4, and 8 hours after administration, and plasma and brain sampling were performed. After preparing a homogenate from the collected brain using Tissue Lyser II (QIAGEN #85300), acetonitrile was added to the homogenate and the homogenate was centrifuged (12000 rpm, 5 minutes) to extract the administered compound contained in the brain. Similarly, the plasma was subjected to addition of acetonitrile and centrifugal separation to extract the administered test compound contained in the plasma. Each extracted sample was subjected to measurement of the concentration of administered test compound using LC/MS/MS (SHIMADZU UFLC/MS/MS (8050)).

Row | Structure (SMILES) | EC50 (human VDR) [nM] | Concentration in blood (mean ± SD) at brain Cmax [2] [nM] | Concentration in brain (mean ± SD) at brain Cmax [2] [pmol/g] | Kp ([2]; C57BL/6J, po, 1 mg/kg) | Mean (number of MBP-positive cells/number of Hoechst33342-positive cells) ([1]; Test 2) | Mean (number of MBP-positive cells/number of Hoechst33342-positive cells) ([1]; Test 1) | Kp [2]
1 | C[C@H](CN1CC[C@H](CC(F)F)C1)[C@H]1CC[C@H]2/C(=C/C=C3C[C@@H](O)C[C@H](O)C3)CCC[C@]12C [Compound B042, (1R,3R)-5-(2-((1R,3aS,7aR,E)-1-((S)-1-((R)-3-(2,2-difluoroethyl)pyrrolidin-1-yl)propan-2-yl)-7a-methyloctahydro-4H-inden-4-ylidene)ethylidene)cyclohexane-1,3-diol] | 10 to 100 | 79 ± 7 | 60 ± 5 | 0.75 | 0.53 | 0.62 | –
2 | C[C@H](CN1CCOC2(CC2)C1)[C@H]1CC[C@H]2/C(=C/C=C3C[C@@H](O)C[C@H](O)C3)CCC[C@]12C [Compound D019, (1R,3R)-5-(2-((1R,3aS,7aR,E)-1-((S)-1-(4-oxa-7-azaspiro[2.5]octan-7-yl)propan-2-yl)-7a-methyloctahydro-4H-inden-4-ylidene)ethylidene)cyclohexane-1,3-diol] | 10 to 100 | 280 ± 53 | 811 ± 163 | – | 0.57 | – | 2.89
3 | C[C@H](CN1CC[C@H](OCC(F)F)C1)[C@H]1CC[C@H]2/C(=C/C=C3C[C@@H](O)C[C@H](O)C3)CCC[C@]12C [Compound B057, (1R,3R)-5-(2-((1R,3aS,7aR,E)-1-((S)-1-((S)-3-(2,2-difluoroethoxy)pyrrolidin-1-yl)propan-2-yl)-7a-methyloctahydro-4H-inden-4-ylidene)ethylidene)cyclohexane-1,3-diol] | 100 to 1000 | 271 ± 16 | 141 ± 8 | 0.52 | 0.57 | – | –
4 | C=C1[C@H](O)CC(=C/C=C2\CCC[C@]3(C)[C@@H]([C@H](C)CN4CCC(C(C)(F)F)CC4)CC[C@@H]23)C[C@H]1O [Compound C055, (1R,3R)-5-(2-((1R,3aS,7aR,E)-1-((S)-1-(4-(1,1-difluoroethyl)piperidin-1-yl)propan-2-yl)-7a-methyloctahydro-4H-inden-4-ylidene)ethylidene)-2-methylenecyclohexane-1,3-diol] | 10 to 100 | 190 ± 23 | 338 ± 36 | 1.78 | 0.48 | – | –

Second part, led by results:

Row | EC50 (human VDR) [nM] | Concentration in blood (mean ± SD) at brain Cmax [2] [nM] | Concentration in brain (mean ± SD) at brain Cmax [2] [pmol/g] | Kp ([2]; C57BL/6J, po, 1 mg/kg) | Structure (SMILES) | Mean (number of MBP-positive cells/number of Hoechst33342-positive cells) ([1]; Test 2) | Mean (number of MBP-positive cells/number of Hoechst33342-positive cells) ([1]; Test 1) | Kp [2]
5 | < 1 | 849 ± 40 | 566 ± 89 | 0.67 | C=C1[C@H](O)CC(=C/C=C2\CCC[C@]3(C)[C@@H]([C@H](C)CN4CCCC(O)(C(F)F)C4)CC[C@@H]23)C[C@H]1O (single isomer, unassigned) [Compound C036a] | 0.53 | – | –
6 | 1 to 10 | 248 ± 28 | 852 ± 48 | 3.44 | C=C1[C@H](O)CC(=C/C=C2\CCC[C@]3(C)[C@@H]([C@H](C)CN4CC[C@H](C(F)F)C4)CC[C@@H]23)C[C@H]1O [Compound B023, (1R,3R)-5-(2-((1R,3aS,7aR,E)-1-((S)-1-((S)-3-(difluoromethyl)pyrrolidin-1-yl)propan-2-yl)-7a-methyloctahydro-4H-inden-4-ylidene)ethylidene)-2-methylenecyclohexane-1,3-diol] | – | 0.50 | –
